{"source": "ChEMBL document CHEMBL5131417", "about": "“Metabolic installation of macrophage-recruiting glycan ligand on tumor cell surface for in vivo tumor suppression” (Bioorg Med Chem Lett, 2022)", "key": {"[1]": {"test_system": "B16-F10", "assay": "Antitumor activity against B16-F10 cells implanted in C57BL/6 mouse assessed as reduction in tumor volume at 30 mg/kg, iv dosed on 2nd, 4th, 6th, 8th, 10th, 12th and 14th day post tumor transplantation", "type": "functional", "parameters": "scale not given: the % may be the effect or the level left", "conditions": "time 14 day"}, "[2]": {"test_system": "U-87 MG", "assay": "Drug distribution in plasma membrane of human U87 cells at 100 uM incubated for 24 hrs by confocal microscopy", "type": "ADME, cell-based", "conditions": "u-87mg atcc"}, "[3]": {"assay": "Drug distribution in plasma membrane of mouse B16-F10 cells at 100 uM incubated for 24 hrs by confocal microscopy", "type": "ADME, cell membranes", "conditions": "b16-f10, 24 h"}, "[4]": {"assay": "Toxicity in mouse B16-F10 cells assessed as effect on cell viability at 0.1 to 100 uM incubated for 24 hrs", "type": "cell-based", "conditions": "b16-f10, 24 h, dose 0.1-100 µM"}, "[5]": {"test_system": "B16-F10", "assay": "Activation of binding of GFP-expressed mouse B16-F10 cells with mouse RAW264.7 cells at 100 uM incubated for 24 hrs by fluorescence microscopy", "type": "functional, cell-based"}, "[6]": {"test_system": "B16-F10", "assay": "Antitumor activity against B16-F10 cells implanted in C57BL/6 mouse assessed as reduction in size and number of metastasis in lung at 30 mg/kg, iv dosed every day after tumor transplantation", "type": "functional, organism-based"}, "[7]": {"assay": "Toxicity in C57BL/6 mouse assessed as induction of abnormal death at 300 mg/kg, iv measured up to 100 days after injection", "type": "organism-based", "conditions": "in vivo, 2400 h, time < 100 day"}}, "note": "Activity calls are given as the source filed them. No cut-off for these calls is given here."}
{"smiles": "CC(=O)N[C@H]1[C@H]([C@H](O)[C@H](O)CNC(=O)c2cc3c(s2)-c2ccccc2OC3)O[C@@](O)(C(=O)O)C[C@@H]1O", "values": [{"measurement": "Activity", "setting": "[1]", "value": 60, "unit": "%"}, {"measurement": "Drug uptake", "setting": "[2]", "value": "Active"}, {"measurement": "Drug uptake", "setting": "[3]", "value": "Active"}, {"measurement": "Activity", "setting": "[4]", "value": "Non-Toxic"}, {"measurement": "Activity", "setting": "[5]", "value": "Active"}, {"measurement": "Activity", "setting": "[6]", "value": "Active"}, {"measurement": "Activity", "setting": "[7]", "value": "Non-Toxic"}]}
